From patent publication US11034993B2, “Assay to measure factor Xa inhibitors” (McMaster University, priority 2018, dated 2021)

Tests used:
Assay type in all cases: biochemical
FXa [1] = molecular target: T1, FXa (Homo sapiens, UniProt P00742); test: Rate of Flu-II cleavage by residual FXa in normal human pooled plasma; conditions: rivaroxaban 0 to 5 nM, apixaban 0 to 10 nM, 0.1 nM FXa mixture
Target sequence in this assay (P00742 41-179 limits assumed): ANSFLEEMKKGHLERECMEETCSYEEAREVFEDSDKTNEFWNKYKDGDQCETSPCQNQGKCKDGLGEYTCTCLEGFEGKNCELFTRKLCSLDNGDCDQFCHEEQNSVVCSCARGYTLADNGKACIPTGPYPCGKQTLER
Target sequence in this assay (P00742 235-488 limits assumed): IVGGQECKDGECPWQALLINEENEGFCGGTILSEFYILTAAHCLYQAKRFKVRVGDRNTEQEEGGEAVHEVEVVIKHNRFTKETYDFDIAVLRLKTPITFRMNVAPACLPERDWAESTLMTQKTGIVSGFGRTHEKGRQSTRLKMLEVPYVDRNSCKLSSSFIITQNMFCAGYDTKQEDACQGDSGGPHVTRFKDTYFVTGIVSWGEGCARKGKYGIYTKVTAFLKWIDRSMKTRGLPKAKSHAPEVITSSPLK
Target sequence in this assay (P12259 29-737 partner limits assumed): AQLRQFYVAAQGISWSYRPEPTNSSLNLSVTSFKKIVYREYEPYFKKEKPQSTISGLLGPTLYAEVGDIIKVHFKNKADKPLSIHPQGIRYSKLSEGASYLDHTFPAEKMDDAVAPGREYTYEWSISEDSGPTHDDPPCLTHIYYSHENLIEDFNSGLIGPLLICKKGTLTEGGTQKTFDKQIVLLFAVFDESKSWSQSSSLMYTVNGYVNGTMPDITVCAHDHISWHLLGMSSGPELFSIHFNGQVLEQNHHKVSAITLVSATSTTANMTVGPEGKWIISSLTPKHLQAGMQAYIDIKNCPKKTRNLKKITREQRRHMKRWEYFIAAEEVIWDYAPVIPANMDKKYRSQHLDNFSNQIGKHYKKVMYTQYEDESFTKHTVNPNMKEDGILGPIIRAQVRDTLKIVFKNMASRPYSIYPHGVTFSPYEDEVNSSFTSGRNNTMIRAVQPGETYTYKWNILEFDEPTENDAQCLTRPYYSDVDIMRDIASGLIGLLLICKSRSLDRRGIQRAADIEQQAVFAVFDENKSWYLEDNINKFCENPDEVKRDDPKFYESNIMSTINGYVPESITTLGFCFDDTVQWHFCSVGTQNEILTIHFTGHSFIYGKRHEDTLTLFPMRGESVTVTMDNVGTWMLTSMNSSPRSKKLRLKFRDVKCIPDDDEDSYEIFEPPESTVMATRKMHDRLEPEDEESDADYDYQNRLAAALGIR
Target sequence in this assay (P12259 1574-2224 partner limits assumed): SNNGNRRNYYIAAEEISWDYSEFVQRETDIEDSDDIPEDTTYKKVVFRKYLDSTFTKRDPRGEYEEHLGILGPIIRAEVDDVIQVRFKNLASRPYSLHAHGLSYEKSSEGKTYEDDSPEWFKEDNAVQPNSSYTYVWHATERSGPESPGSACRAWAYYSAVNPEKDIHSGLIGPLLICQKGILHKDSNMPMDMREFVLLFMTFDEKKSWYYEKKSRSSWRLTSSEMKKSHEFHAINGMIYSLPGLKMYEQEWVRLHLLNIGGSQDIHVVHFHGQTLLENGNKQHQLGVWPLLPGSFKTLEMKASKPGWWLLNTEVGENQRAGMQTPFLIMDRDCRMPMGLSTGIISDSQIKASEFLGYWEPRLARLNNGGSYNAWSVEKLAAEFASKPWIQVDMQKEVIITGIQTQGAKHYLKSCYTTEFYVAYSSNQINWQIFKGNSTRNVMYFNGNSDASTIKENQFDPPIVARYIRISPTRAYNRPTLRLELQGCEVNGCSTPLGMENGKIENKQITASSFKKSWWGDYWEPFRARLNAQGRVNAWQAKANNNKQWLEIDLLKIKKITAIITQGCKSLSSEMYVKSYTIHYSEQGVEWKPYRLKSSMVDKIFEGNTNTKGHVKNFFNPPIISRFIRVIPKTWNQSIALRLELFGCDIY

FXa [2] = molecular target: T1, FXa; test: Flu-II cleavage by residual FXa in individual plasma samples; conditions: citrated plasma from four individuals; rivaroxaban 0 to 5 nM, apixaban 0 to 10 nM
Target sequence in this assay (P00742 41-179 limits assumed): as the sequence (P00742 41-179 limits assumed) above
Target sequence in this assay (P00742 235-488 limits assumed): as the sequence (P00742 235-488 limits assumed) above
Target sequence in this assay (P12259 29-737 partner limits assumed): as the sequence (P12259 29-737 partner limits assumed) above
Target sequence in this assay (P12259 1574-2224 partner limits assumed): as the sequence (P12259 1574-2224 partner limits assumed) above

FXa [3] = molecular target: T1, FXa; test: Flu-II cleavage by residual FXa in whole blood; conditions: citrated whole blood, 0 to 100 nM in blood (2 nM final, 50-fold dilution)
Target sequence in this assay (P00742 41-179 limits assumed): as the sequence (P00742 41-179 limits assumed) above
Target sequence in this assay (P00742 235-488 limits assumed): as the sequence (P00742 235-488 limits assumed) above
Target sequence in this assay (P12259 29-737 partner limits assumed): as the sequence (P12259 29-737 partner limits assumed) above
Target sequence in this assay (P12259 1574-2224 partner limits assumed): as the sequence (P12259 1574-2224 partner limits assumed) above

FXa [4] = molecular target: T1, FXa; test: Flu-II cleavage by residual FXa in plasma with LMWH; conditions: normal human pooled plasma, LMWH 0 to 1 unit/mL final
Target sequence in this assay (P00742 41-179): as the sequence (P00742 41-179 limits assumed) above
Target sequence in this assay (P00742 235-488): as the sequence (P00742 235-488 limits assumed) above
Target sequence in this assay (P01008 33-464 partner): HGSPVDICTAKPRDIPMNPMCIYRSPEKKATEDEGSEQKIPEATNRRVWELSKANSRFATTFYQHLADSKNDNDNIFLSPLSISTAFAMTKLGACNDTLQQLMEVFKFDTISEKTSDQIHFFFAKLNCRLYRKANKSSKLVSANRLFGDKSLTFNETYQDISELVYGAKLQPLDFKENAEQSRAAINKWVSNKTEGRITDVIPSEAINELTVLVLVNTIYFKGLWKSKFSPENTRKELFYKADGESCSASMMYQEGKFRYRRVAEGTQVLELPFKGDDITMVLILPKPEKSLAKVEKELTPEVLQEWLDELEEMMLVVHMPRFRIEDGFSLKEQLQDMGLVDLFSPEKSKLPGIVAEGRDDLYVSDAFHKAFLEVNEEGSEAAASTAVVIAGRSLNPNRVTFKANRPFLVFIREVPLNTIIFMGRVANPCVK

| response of rate of Flu-II cleavage to levels of LMWH (FXa [4]) | Compound | overall inhibition of total activity (rate of Flu-II cleavage) (FXa [1]) [%] | maximal inhibition of total FXa activity (FXa [2]) [%] | maximal inhibition (initial rate of Flu-II cleavage) (FXa [3]) [%] |
| --- | --- | --- | --- | --- |
|  | O=C(NC[C@H]1CN(c2ccc(N3CCOCC3=O)cc2)C(=O)O1)c1ccc(Cl)s1 [rivaroxaban] | ~85 | ~80 | ~50 |
| sensitive to the levels of LMWH | dalteparin |  |  |  |
